Among the data in patent US9227971B2, “Pyrazolo[1,5-a]pyrimidine compounds as mTOR inhibitors” (Merck Sharp & Dohme Corp., priority 2010, dated 2016) are IC50 values, retold here.

The subject of assay [1] is phosphorylated 4E-BP1 Thr37/46 (p4E-BP1 Thr37/46), mTORC1 activity, PC3 cells. In words: mTOR target engagement assay, immunofluorescent cell-based, p4E-BP1 Thr37/46 readout (mTORC1 activity). The settings on record: Homo sapiens, read-out: p4E-BP1 Thr37/46 IC50. In short, it runs like this:
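Cell-based immunofluorescence in PC3 cells: serially diluted compounds (0.25% DMSO, 5% FBS) applied for ninety minutes at 37° C before fixation and overnight 4° C staining of p4E-BP1 Thr37/46. Untreated DMSO wells set maximal phosphorylation; IC50 obtained by logistic fitting.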

Assay [2] deals with phosphorylated AKT Ser473 (pAKT S473), mTORC2 activity, PC3 cells. The assay is described as follows: mTOR target engagement assay, immunofluorescent cell-based, pAKT S473 readout (mTORC2 activity). The settings on record: Homo sapiens. In short, it runs like this: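 After blocking, cells were stained overnight at 4 °C with anti-pAKT S473 antibody, then a fluorescent secondary; inhibition was read as reduced fluorescence intensity.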

The mark [3] stands for this setting: PC-3, PC3 cells, compound treatment ninety minutes at 37° C.

Read-outs that look alike come from different tables or passages of the source. A value given as a limit tells only on which side of the number the result lay.

For the compound `Cc1nnc(C(=O)N2[C@@H]3CC[C@H]2C[C@H](c2nc4c(-c5ccc(-c6ncc(C)s6)nc5)cnn4c(N)c2S(C)(=O)=O)C3)[nH]1` [Compound 3.184, ((1R,3s,5S)-3-(7-amino-6-(methylsulfonyl)-3-(6-(5-methylthiazol-2-yl)pyridin-3-yl)pyrazolo[1,5-a]pyrimidin-5-yl)-8-azabicyclo[3.2.1]octan-8-yl)(5-methyl-4H-1,2,4-triazol-3-yl)methanone], the IC50 lay within 0.001 to 0.1 µM in assay [1] (PC-3, Table 3-1, PC3 cells) and 0.001 to 0.1 µM in assay [2] (PC-3, Table 3-1, PC3 cells).
For `Cc1nnc(C(=O)N2[C@@H]3CC[C@H]2C[C@H](c2nc4c(-c5cn[nH]c5)cnn4c(N)c2S(C)(=O)=O)C3)[nH]1` [Compound 3.115, ((1R,3s,5S)-3-(7-amino-6-(methylsulfonyl)-3-(1H-pyrazol-4-yl)pyrazolo[1,5-a]pyrimidin-5-yl)-8-azabicyclo[3.2.1]octan-8-yl)(5-methyl-4H-1,2,4-triazol-3-yl)methanone], the IC50 in assay [1] (PC-3, Table 3-1, PC3 cells) was more than 10 µM; in assay [2] (PC-3, Table 3-1, PC3 cells), more than 10 µM.
With `CC(=O)c1c([C@@H]2C[C@H]3CC[C@@H](C2)N3C(=O)c2nnc[nH]2)nc2c(-c3cnc(C(C)(C)O)c(C)c3)cnn2c1N` [Compound 7.24, 1-(5-((1R,3s,5S)-8-(4H-1,2,4-triazole-3-carbonyl)-8-azabicyclo[3.2.1]octan-3-yl)-7-amino-3-(6-(2-hydroxypropan-2-yl)-5-methylpyridin-3-yl)pyrazolo[1,5-a]pyrimidin-6-yl)ethanone], the IC50 in assay [1] (setting [3]) and in assay [2] (setting [3]) was 0.001 to 0.1 µM each time.
As to `COc1ccc(-c2ccc(-c3cnn4c(N)cc([C@@H]5C[C@H]6CC[C@@H](C5)N6C(=O)c5nnc[nH]5)nc34)cn2)cc1F` [Compound 2.5, ((1R,3s,5S)-3-(7-amino-3-(6-(3-fluoro-4-methoxyphenyl)pyridin-3-yl)pyrazolo[1,5-a]pyrimidin-5-yl)-8-azabicyclo[3.2.1]octan-8-yl)(4H-1,2,4-triazol-3-yl)methanone], the IC50 is 1 to 10 µM in assay [1] (setting [3]) and 0.1 to 1 µM in assay [2] (setting [3]).
Turning to `CNC(=O)Nc1ccc(-c2cnn3c(N)cc([C@@H]4C[C@H]5CC[C@@H](C4)N5C(=O)c4nnc[nH]4)nc23)cc1` [Compound 8.80, 1-(4-(5-((1R,3s,5S)-8-(4H-1,2,4-triazole-3-carbonyl)-8-azabicyclo[3.2.1]octan-3-yl)-7-aminopyrazolo[1,5-a]pyrimidin-3-yl)phenyl)-3-methylurea], the IC50 in assay [1] (PC-3, PC3 cells) was more than 10 µM; in assay [2] (PC-3, PC3 cells) it was more than 10 µM.
`CS(=O)(=O)c1c([C@@H]2C[C@H]3CC[C@@H](C2)N3C(=O)c2nnn[nH]2)nc2c(-c3ccc(-c4ccccc4)nc3)cnn2c1N` [Compound 3.5, ((1R,3s,5S)-3-(7-amino-6-(methylsulfonyl)-3-(6-phenylpyridin-3-yl)pyrazolo[1,5-a]pyrimidin-5-yl)-8-azabicyclo[3.2.1]octan-8-yl)(1H-tetrazol-5-yl)methanone]: the IC50 in assay [1] (PC-3, Table 3-1, PC3 cells) was more than 10 µM; in assay [2] (PC-3, Table 3-1, PC3 cells), 1 to 10 µM.
The matching figures for `Cc1n[nH]c(C(=O)N2[C@@H]3CC[C@H]2C[C@H](c2nc4c(-c5ccc(-c6ccccc6)nc5)cnn4c(N)c2S(C)(=O)=O)C3)n1` [Compound 3.4, ((1R,3s,5S)-3-(7-amino-6-(methylsulfonyl)-3-(6-phenylpyridin-3-yl)pyrazolo[1,5-a]pyrimidin-5-yl)-8-azabicyclo[3.2.1]octan-8-yl)(3-methyl-1H-1,2,4-triazol-5-yl)methanone]: 0.001 to 0.1 µM and 0.001 to 0.1 µM.
Turning to `CS(=O)(=O)c1c([C@@H]2C[C@H]3CC[C@@H](C2)N3C#N)nc2c(-c3ccc(-c4ccccc4)nc3)cnn2c1N` [Compound 8.70, (1R,3s,5S)-3-(7-amino-6-(methylsulfonyl)-3-(6-phenylpyridin-3-yl)pyrazolo[1,5-a]pyrimidin-5-yl)-8-azabicyclo[3.2.1]octane-8-carbonitrile], the IC50 fell in the range of 1 to 10 µM in assay [1] (PC-3, PC3 cells) and 0.1 to 1 µM in assay [2] (PC-3, PC3 cells).
In the case of `CS(=O)(=O)c1c([C@@H]2C[C@H]3CC[C@@H](C2)N3C(=O)CO)nc2c(-c3cn[nH]c3)cnn2c1N` [Compound 3.114, 1-((1R,3s,5S)-3-(7-amino-6-(methylsulfonyl)-3-(1H-pyrazol-4-yl)pyrazolo[1,5-a]pyrimidin-5-yl)-8-azabicyclo[3.2.1]octan-8-yl)-1-hydroxyethanone], the IC50 in assay [1] (PC-3, Table 3-1, PC3 cells) is more than 10 µM; in assay [2] (PC-3, Table 3-1, PC3 cells) it was more than 10 µM.
Regarding `CC(=O)c1c([C@@H]2C[C@H]3CC[C@@H](C2)N3C(=O)c2nnc[nH]2)nc2c(-c3ccc([C@@H](C)O)nc3)cnn2c1N` [Compound 7.14, 1-(5-((1R,3s,5S)-8-(4H-1,2,4-triazole-3-carbonyl)-8-azabicyclo[3.2.1]octan-3-yl)-7-amino-3-(6-((R)-1-hydroxyethyl)pyridin-3-yl)pyrazolo[1,5-a]pyrimidin-6-yl)ethanone], the IC50 in assay [1] (setting [3]) and in assay [2] (setting [3]) was 0.1 to 1 µM each time.
For `Nc1c(C2CC2)c(C2CC3CCC(C2)N3C(=O)c2nnc(N3CCNCC3)[nH]2)nc2c(-c3ccc(-c4ccccc4)nc3)cnn12` [Compound 8.98, ((1R,3s,5S)-3-(7-amino-6-cyclopropyl-3-(6-phenylpyridin-3-yl)pyrazolo[1,5-a]pyrimidin-5-yl)-8-azabicyclo[3.2.1]octan-8-yl)(5-(piperazin-1-yl)-4H-1,2,4-triazol-3-yl)methanone], the IC50 lay in the range of 1 to 10 µM in assay [1] (PC-3, PC3 cells) and 1 to 10 µM in assay [2] (PC-3, PC3 cells).
For `CC(=O)c1c([C@@H]2C[C@H]3CC[C@@H](C2)N3C(=O)c2n[nH]c(N)n2)nc2c(-c3ccc(-c4ccccc4)nc3)cnn2c1N` [Compound 1.1.140, 1-(7-amino-5-((1R,3s,5S)-8-(5-amino-1H-1,2,4-triazole-3-carbonyl)-8-azabicyclo[3.2.1]octan-3-yl)-3-(6-phenylpyridin-3-yl)pyrazolo[1,5-a]pyrimidin-6-yl)ethanone], the IC50 in assay [1] (setting [3]) and in assay [2] (setting [3]) was 0.001 to 0.1 µM throughout.
As to `COc1ccc(-c2ccc(-c3cnn4c(N)c(S(C)(=O)=O)c([C@@H]5C[C@H]6CC[C@@H](C5)N6C(=O)c5nnc[nH]5)nc34)cn2)cc1C` [Compound 3.50, ((1R,3s,5S)-3-(7-amino-3-(6-(4-methoxy-3-methylphenyl)pyridin-3-yl)-6-(methylsulfonyl)pyrazolo[1,5-a]pyrimidin-5-yl)-8-azabicyclo[3.2.1]octan-8-yl)(4H-1,2,4-triazol-3-yl)methanone], the IC50 was in the range of 0.001 to 0.1 µM in assay [1] (PC-3, Table 3-1, PC3 cells) and 0.001 to 0.1 µM in assay [2] (PC-3, Table 3-1, PC3 cells).
In the case of `CS(=O)(=O)c1c([C@@H]2C[C@H]3CC[C@@H](C2)N3C(=O)c2cc3cccnc3[nH]2)nc2c(-c3ccc(-c4ccccc4)nc3)cnn2c1N` [Compound 3.77, ((1R,3s,5S)-3-(7-amino-6-(methylsulfonyl)-3-(6-phenylpyridin-3-yl)pyrazolo[1,5-a]pyrimidin-5-yl)-8-azabicyclo[3.2.1]octan-8-yl)(1H-pyrrolo[2,3-b]pyridin-2-yl)methanone], the IC50 in assay [1] (PC-3, Table 3-1, PC3 cells) is more than 10 µM; in assay [2] (PC-3, Table 3-1, PC3 cells), 1 to 10 µM.
Turning to `CS(=O)(=O)c1c([C@@H]2C[C@H]3CC[C@@H](C2)N3C(=O)c2nnc[nH]2)nc2c(-c3ccc(OCC4CC4)nc3)cnn2c1N` [Compound 8.54, ((1R,3s,5S)-3-(7-amino-3-(6-(cyclopropylmethoxy)pyridin-3-yl)-6-(methylsulfonyl)pyrazolo[1,5-a]pyrimidin-5-yl)-8-azabicyclo[3.2.1]octan-8-yl)(4H-1,2,4-triazol-3-yl)methanone], the IC50 in assay [1] (PC-3, PC3 cells) was more than 10 µM; in assay [2] (PC-3, PC3 cells), more than 10 µM.
On to `Cn1ccc(-c2ccc(-c3cnn4c(N)c(C5CC5)c([C@@H]5C[C@H]6CC[C@@H](C5)N6C(=O)c5nnc[nH]5)nc34)cn2)n1` [Compound 4.17, ((1R,3s,5S)-3-(7-amino-6-cyclopropyl-3-(6-(1-methyl-1H-pyrazol-3-yl)pyridin-3-yl)pyrazolo[1,5-a]pyrimidin-5-yl)-8-azabicyclo[3.2.1]octan-8-yl)(4H-1,2,4-triazol-3-yl)methanone], for which the IC50 in assay [1] (setting [3]) and in assay [2] (setting [3]) was 0.001 to 0.1 µM each time.
For `Nc1cc([C@@H]2C[C@H]3CC[C@@H](C2)N3)nc2c(-c3ccc(-c4ccccc4)nc3)cnn12` [Compound 2.23, 5-((1R,3s,5S)-8-azabicyclo[3.2.1]octan-3-yl)-3-(6-phenylpyridin-3-yl)pyrazolo[1,5-a]pyrimidin-7-amine], the IC50 in assay [1] (setting [3]) and in assay [2] (setting [3]) was 1 to 10 µM in each case.
With `N#C/N=C(\N)N1[C@@H]2CC[C@H]1C[C@H](c1cc(N)n3ncc(-c4ccc(-c5ccccc5)nc4)c3n1)C2` [Compound 8.86], the IC50 in assay [1] (PC-3, PC3 cells) fell in the range of 1 to 10 µM; in assay [2] (PC-3, PC3 cells), 1 to 10 µM.
Consider `Cc1csc(-c2ccc(-c3cnn4c(N)c(S(C)(=O)=O)c([C@@H]5C[C@H]6CC[C@@H](C5)N6C(=O)c5cn[nH]n5)nc34)cn2)n1` [Compound 3.189, ((1R,3s,5S)-3-(7-amino-6-(methylsulfonyl)-3-(6-(4-methylthiazol-2-yl)pyridin-3-yl)pyrazolo[1,5-a]pyrimidin-5-yl)-8-azabicyclo[3.2.1]octan-8-yl)(2H-1,2,3-triazol-4-yl)methanone], for which the IC50 in assay [1] (PC-3, Table 3-1, PC3 cells) is 1 to 10 µM; in assay [2] (PC-3, Table 3-1, PC3 cells) it was 1 to 10 µM.
In the case of `Cc1cnc(-c2ccc(-c3cnn4c(N)c(S(C)(=O)=O)c([C@H]5CC6CC[C@H](C5)N6C(=O)c5nnc[nH]5)nc34)cn2)s1` [Compound 3.180, ((1R,3s,5S)-3-(7-amino-6-(methylsulfonyl)-3-(6-(5-methylthiazol-2-yl)pyridin-3-yl)pyrazolo[1,5-a]pyrimidin-5-yl)-8-azabicyclo[3.2.1]octan-8-yl)(4H-1,2,4-triazol-3-yl)methanone], the IC50 in assay [1] (PC-3, Table 3-1, PC3 cells) was 0.001 to 0.1 µM; in assay [2] (PC-3, Table 3-1, PC3 cells), 0.001 to 0.1 µM.
